Results published in the supplement of paper PMC5908809.

What was measured:
[1] = test system: normal NK cells expanded with K562-aAPC; experiment: percent inhibition of viability; higher = more inhibition; conditions: 72 h, IL-2 2.5 ng/mL
Experimental: (§1)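 Drug sensitivity and resistance testing on K562-aAPC-expanded normal NK cells: 5 concentrations (10-fold steps over a 10,000-fold range), 72 h at 37 °C, viability by CellTiter-Glo normalised to DMSO and benzethonium chloride controls; DSS from the fitted curve.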

DERL-7 (IL-2 2.5 ng/mL) [2] = experiment: as above; conditions: 72 h
IMC-1 (IL-2 20 ng/mL) [3] = experiment: as above; conditions: 72 h
KAI3 (IL-2 2.5 ng/mL) [4] = experiment: as above; conditions: 72 h
KHYG-1 (IL-2 2.5 ng/mL) [5] = experiment: as above; conditions: 72 h
NK-92 (IL-2 2.5 ng/mL) [6] = experiment: as above; conditions: 72 h
NK-YS (IL-2 2.5 ng/mL) [7] = experiment: as above; conditions: 72 h
NKL (IL-2 2.5 ng/mL) [8] = experiment: as above; conditions: 72 h
SNK-6 (IL-2 2.5 ng/mL) [9] = experiment: as above; conditions: 72 h
YT (IL-2 2.5 ng/mL) [10] = experiment: as above; conditions: 72 h
[11] = test system: normal primary NK cells, pool 1 (3 donors) (IL-2 2.5 ng/mL); experiment: as above; conditions: 72 h
[12] = test system: normal primary NK cells, pool 1 (3 donors), resting (IL-2 0 ng/mL); experiment: as above; conditions: 72 h
[13] = test system: normal primary NK cells, pool 2 (3 donors) (IL-2 2.5 ng/mL); experiment: as above; conditions: 72 h
[14] = test system: normal primary NK cells, pool 3 (3 donors) (IL-2 2.5 ng/mL); experiment: as above; conditions: 72 h
[15] = test system: normal NK cells expanded with K562-aAPC; experiment: drug sensitivity score (DSS) (DSS units); higher = more sensitive; extreme values may be limits of the assay; conditions: 72 h; IL-2 2.5 ng/mL
Experimental: as §1

DERL-7 (IL-2 2.5 ng/mL) [16] = experiment: as above; conditions: 72 h
IMC-1 (IL-2 20 ng/mL) [17] = experiment: as above; conditions: 72 h
KAI3 (IL-2 2.5 ng/mL) [18] = experiment: as above; conditions: 72 h
KHYG-1 (IL-2 2.5 ng/mL) [19] = experiment: as above; conditions: 72 h
NK-92 (IL-2 2.5 ng/mL) [20] = experiment: as above; conditions: 72 h
NK-YS (IL-2 2.5 ng/mL) [21] = experiment: as above; conditions: 72 h
NKL (IL-2 2.5 ng/mL) [22] = experiment: as above; conditions: 72 h
SNK-6 (IL-2 2.5 ng/mL) [23] = experiment: as above; conditions: 72 h
YT (IL-2 2.5 ng/mL) [24] = experiment: as above; conditions: 72 h
[25] = test system: normal primary NK cells, pool 1 (3 donors) (IL-2 2.5 ng/mL); experiment: as above; conditions: 72 h
[26] = test system: normal primary NK cells, pool 1 (3 donors), resting (IL-2 0 ng/mL); experiment: as above; conditions: 72 h
[27] = test system: normal primary NK cells, pool 2 (3 donors) (IL-2 2.5 ng/mL); experiment: as above; conditions: 72 h
[28] = test system: normal primary NK cells, pool 3 (3 donors) (IL-2 2.5 ng/mL); experiment: as above; conditions: 72 h

Cc1cc(Nc2nc(N[C@@H](C)c3ncc(F)cn3)ncc2Cl)[nH]n1 [AZD1480] (max concentration tested 1000 nM)
percent inhibition of viability [%]
Conditions | 0.1 nM | 1 nM | 10 nM | 100 nM | 1000 nM
DERL-7 (IL-2 2.5 ng/mL) [2] | 0.17 | 6.33 | 14.9 | 62 | 94.2
IMC-1 (IL-2 20 ng/mL) [3] | -4.11 | -5.28 | -12.7 | -1.83 | 73.8
KAI3 (IL-2 2.5 ng/mL) [4] | 3.55 | 2.45 | 24.7 | 77 | 87.5
KHYG-1 (IL-2 2.5 ng/mL) [5] | 0.27 | 3.46 | 15.9 | 86.6 | 95.6
NK-92 (IL-2 2.5 ng/mL) [6] | -8.05 | 3.14 | 1.52 | 28.2 | 78
NK-YS (IL-2 2.5 ng/mL) [7] | 0.27 | -0.67 | 8.06 | 35.8 | 65.3
NKL (IL-2 2.5 ng/mL) [8] | -13.4 | -3.23 | 19.8 | 65.5 | 76.2
SNK-6 (IL-2 2.5 ng/mL) [9] | -1.78 | 7.1 | 4.31 | 59.5 | 96.2
YT (IL-2 2.5 ng/mL) [10] | 2.34 | -1.75 | 1.84 | 10.8 | 70.7
[1] | -0.54 | 2.03 | 10.3 | 53.7 | 95.5
[11] | -6.31 | -10.2 | 7.91 | 39.2 | 68.6
[12] | -5.75 | -9.19 | 6.02 | 2 | 2.57
[13] | -8.71 | -7.23 | -6.75 | 36.8 | 58
[14] | -15.9 | -5.65 | -9.13 | 21.8 | 58.1

Conditions | drug sensitivity score
DERL-7 (IL-2 2.5 ng/mL) [16] | 13.7
IMC-1 (IL-2 20 ng/mL) [17] | 3.91
KAI3 (IL-2 2.5 ng/mL) [18] | 17.1
KHYG-1 (IL-2 2.5 ng/mL) [19] | 17.9
NK-92 (IL-2 2.5 ng/mL) [20] | 8.24
NK-YS (IL-2 2.5 ng/mL) [21] | 7.94
NKL (IL-2 2.5 ng/mL) [22] | 14.5
SNK-6 (IL-2 2.5 ng/mL) [23] | 12.5
YT (IL-2 2.5 ng/mL) [24] | 5.7
[15] | 12
[25] | 8.59
[26] | 0
[27] | 7.54
[28] | 6.17

CC(C)(C)NC(=O)[C@H]1CC[C@H]2[C@@H]3CC[C@H]4NC(=O)C=C[C@]4(C)[C@H]3CC[C@]12C [Finasteride] (max concentration tested 10000 nM)
percent inhibition of viability [%]
Conditions | 1 nM | 10 nM | 100 nM | 1000 nM | 10000 nM
DERL-7 (IL-2 2.5 ng/mL) [2] | 8.57 | -6.64 | 5.89 | -0.19 | 12.4
IMC-1 (IL-2 20 ng/mL) [3] | -6.06 | -4.68 | -1.34 | 2.37 | 27.1
KAI3 (IL-2 2.5 ng/mL) [4] | 2.67 | 5.19 | 10.5 | 4.13 | 28.6
KHYG-1 (IL-2 2.5 ng/mL) [5] | -6.44 | -5.37 | 3.63 | 2.04 | 10.9
NK-92 (IL-2 2.5 ng/mL) [6] | -2.71 | -10.9 | 0.46 | 4.24 | 44.5
NK-YS (IL-2 2.5 ng/mL) [7] | -10.4 | -1.41 | -5.34 | 5.54 | 10.5
NKL (IL-2 2.5 ng/mL) [8] | 5.94 | -9.09 | 10.7 | 13 | 34.2
SNK-6 (IL-2 2.5 ng/mL) [9] | -3.02 | -28.7 | -17.3 | -25.3 | -11.3
YT (IL-2 2.5 ng/mL) [10] | 4.41 | -7.13 | 5.2 | -3.12 | 30.2
[1] | -10.9 | -11.1 | -5.78 | 1.82 | 14.1
[11] | -9.53 | 1.23 | 3.62 | -7.18 | 3.28
[12] | 1.92 | 14 | 3.85 | 6.98 | 20.4
[13] | -2.14 | -1.25 | 3.98 | -1.8 | 12.4
[14] | 1.72 | -0.73 | 15.2 | -6.78 | 1.67

Conditions | drug sensitivity score
DERL-7 (IL-2 2.5 ng/mL) [16] | 0.06
IMC-1 (IL-2 20 ng/mL) [17] | 1.45
KAI3 (IL-2 2.5 ng/mL) [18] | 1.87
KHYG-1 (IL-2 2.5 ng/mL) [19] | 0.04
NK-92 (IL-2 2.5 ng/mL) [20] | 2.97
NK-YS (IL-2 2.5 ng/mL) [21] | 0.05
NKL (IL-2 2.5 ng/mL) [22] | 2.88
SNK-6 (IL-2 2.5 ng/mL) [23] | 0
YT (IL-2 2.5 ng/mL) [24] | 1.11
[15] | 0.32
[25] | 0
[26] | 0.89
[27] | 0.04
[28] | 0

CC(=O)OC[C@H]1O[C@@H]([S-])[C@H](OC(C)=O)[C@@H](OC(C)=O)[C@@H]1OC(C)=O.CCP(CC)CC.[Au+] [Auranofin] (max concentration tested 2500 nM)
percent inhibition of viability [%]
Conditions | 0.25 nM | 2.5 nM | 25 nM | 250 nM | 2500 nM
DERL-7 (IL-2 2.5 ng/mL) [2] | -0.63 | 7.06 | 8.16 | 44.6 | 98.2
IMC-1 (IL-2 20 ng/mL) [3] | -3.33 | -1.53 | 4.17 | 1.71 | 99.3
KAI3 (IL-2 2.5 ng/mL) [4] | -6.77 | -2.1 | -2.36 | -3.59 | 71.4
KHYG-1 (IL-2 2.5 ng/mL) [5] | 0.4 | -2.1 | 1.71 | 13.8 | 104
NK-92 (IL-2 2.5 ng/mL) [6] | -2.57 | -12.2 | -2.23 | -0.04 | 98.4
NK-YS (IL-2 2.5 ng/mL) [7] | -7.49 | -6.18 | -3.6 | 9.95 | 84.9
NKL (IL-2 2.5 ng/mL) [8] | -10.3 | -9.31 | -24.6 | 52.6 | 106
SNK-6 (IL-2 2.5 ng/mL) [9] | 13.5 | 17.1 | 4.84 | 33.2 | 86
YT (IL-2 2.5 ng/mL) [10] | -4.83 | -3.66 | 0.33 | -3.85 | 101
[1] | 1.15 | -1.41 | -0.3 | 33.5 | 100
[11] | -6.81 | -8.13 | 21.6 | 92.8 | 100
[12] | 5.52 | -6.64 | 48.2 | 92.5 | 99.7
[13] | -13.4 | -6.97 | 8.16 | 82.7 | 101
[14] | -4.42 | 1.03 | 18.4 | 81.8 | 101

Conditions | drug sensitivity score
DERL-7 (IL-2 2.5 ng/mL) [16] | 10.6
IMC-1 (IL-2 20 ng/mL) [17] | 5.76
KAI3 (IL-2 2.5 ng/mL) [18] | 3.64
KHYG-1 (IL-2 2.5 ng/mL) [19] | 7.93
NK-92 (IL-2 2.5 ng/mL) [20] | 5.5
NK-YS (IL-2 2.5 ng/mL) [21] | 6.36
NKL (IL-2 2.5 ng/mL) [22] | 11.9
SNK-6 (IL-2 2.5 ng/mL) [23] | 8.77
YT (IL-2 2.5 ng/mL) [24] | 5.39
[15] | 10.2
[25] | 19.7
[26] | 23.7
[27] | 16.3
[28] | 17.4
